These are literature values, as cited in article PMC12697872, “Rethinking the AI Paradigm for Solubility Prediction of Drug‑Like Compounds with Dual‐Perspective Modeling and Experimental Validation” (Advanced Science, 2025).

Structures are written as SMILES.

For the first data set the following is noted: experimental aqueous solubility as logS, sheet "DrugBank" of Supplement 2; ref DrugBank; cited from earlier work.
In the case of `C[C@]1(O)CC[C@H]2[C@@H]3CCC4=CC(=O)CC[C@]4(C)[C@@]3(F)[C@@H](O)C[C@@]21C` [Fluoxymesterone], the ex_logS is on record as -3.698. For `CC(C(=O)O)c1ccc(-c2ccccc2)c(F)c1` (stereo not drawn) [Flurbiprofen], the ex_logS is -4.485. Regarding `CC(C)C(=O)Nc1ccc([N+](=O)[O-])c(C(F)(F)F)c1` [Flutamide], the ex_logS is recorded as -4.466. Regarding `CC(OC(=O)NCC1(CC(=O)O)CCCCC1)OC(=O)C(C)C` (stereo not drawn) [Gabapentin enacarbil], the ex_logS is -2.819. In the case of `COC1=CC(=O)C[C@@H](C)[C@]12Oc1c(Cl)c(OC)cc(OC)c1C2=O` [Griseofulvin], the ex_logS was -4.611. In the case of `CN1C(=O)NC(=O)C(C)(C2=CCCCC2)C1=O` (stereo not drawn) [Hexobarbital], the ex_logS was -2.735. Regarding `N[C@@H](Cc1c[nH]cn1)C(=O)O` [Histidine], the ex_logS is on record as -0.5318.

On to `O=c1[nH]cnc2nc[nH]c12` [Hypoxanthine], for which the ex_logS is given as -2.2888.

Consider `c1ccc2cnccc2c1` [Isoquinoline], for which the ex_logS is -1.456. With `O=[N+]([O-])O[C@H]1CO[C@H]2[C@@H]1OC[C@H]2O[N+](=O)[O-]` [Isosorbide dinitrate], the ex_logS was -2.6328.

`Nc1ccn([C@@H]2CS[C@H](CO)O2)c(=O)n1` [Lamivudine]: the ex_logS was -0.5152. As for `CCCCCCCCCCCC(=O)O` [Lauric acid], the ex_logS is -4.62.

For `N[C@@H](Cc1ccc(O)c(O)c1)C(=O)O` [Levodopa], the ex_logS was -2.299. Regarding `CN1c2c(nc(N)[nH]c2=O)NC[C@@H]1CNc1ccc(C(=O)N[C@@H](CCC(=O)O)C(=O)O)cc1` [Levomefolic acid], the ex_logS is -3.185. For `CC(C)[C@@H]1CC[C@@H](C)C[C@H]1O` [Levomenthol], the ex_logS is on record as -2.504. With `Cl[C@H]1[C@H](Cl)[C@@H](Cl)[C@@H](Cl)[C@H](Cl)[C@H]1Cl` [Lindane], the ex_logS is on record as -4.6. Consider `O=C(O)CC(=O)O` [Malonic acid], for which the ex_logS was 0.8652. Consider `CC(=O)[C@@]1(C)CC[C@H]2[C@@H]3C=C(C)C4=CC(=O)CC[C@]4(C)[C@H]3CC[C@@]21C` [Medrogestone], for which the ex_logS is -5.277.

Turning to `Cc1cccc(C)c1NC(=O)C1CCCCN1C` (stereo not drawn) [Mepivacaine], the ex_logS is given as -1.991. Regarding `CCCC(C)(COC(N)=O)COC(N)=O` [Meprobamate], the ex_logS is -1.667. `S=c1[nH]cnc2nc[nH]c12` [Mercaptopurine]: the ex_logS was -3.089. As to `CSCC[C@H](N)C(=O)O` [Methionine], the ex_logS is on record as -0.421. `CC(C(=O)O)C(=O)O` [Methylmalonic Acid]: the ex_logS was 0.7597.

Consider `CC(=O)Oc1c(C)cc(OCC(O)CNC(C)C)c(C)c1C` (stereo not drawn) [Metipranolol], for which the ex_logS is given as -2.72. For the molecule `Cc1ccccc1N1C(=O)c2cc(S(N)(=O)=O)c(Cl)cc2NC1C` (stereo not drawn) [Metolazone], the ex_logS was -3.783. Turning to `COc1c(C)c2c(c(O)c1C/C=C(\C)CCC(=O)OCCN1CCOCC1)C(=O)OC2` [Mycophenolate mofetil], the ex_logS is on record as -4.004. Consider `CC(C)(C)NCC(O)COc1cccc2c1CC(O)C(O)C2` (stereo not drawn) [Nadolol], for which the ex_logS is given as -1.57. Turning to `NC(=O)c1cccnc1` [Nicotinamide], the ex_logS was 0.6122. `O=C1CN(/N=C/c2ccc([N+](=O)[O-])o2)C(=O)N1` [Nitrofurantoin]: the ex_logS was -3.4765. As to `CC(C)NCC(O)c1cc(O)cc(O)c1` (stereo not drawn) [Orciprenaline], the ex_logS is reported as -4.338.

Staying with this data set, now noted: experimental aqueous solubility as logS, sheet "DrugBank"; ref DrugBank database; cited from earlier work.
For the molecule `CCOC(=O)c1ncn2c1CN(C)C(=O)c1cc(F)ccc1-2` [Flumazenil], the ex_logS is recorded as -3.375. For `CC(=O)[C@@]1(O)CC[C@H]2[C@@H]3C[C@H](C)C4=CC(=O)C=C[C@]4(C)[C@@]3(F)[C@@H](O)C[C@@]21C` [Fluorometholone], the ex_logS is given as -4.0986.

For `CC(C)n1c(/C=C/C(O)CC(O)CC(=O)O)c(-c2ccc(F)cc2)c2ccccc21` (stereo not drawn) [Fluvastatin], the ex_logS was -5.952.

As for `Nc1ccn([C@@H]2O[C@H](CO)[C@@H](O)C2(F)F)c(=O)n1` [Gemcitabine], the ex_logS was -1.236. With `O=C(OCCO)c1ccccc1O` [Glycol salicylate], the ex_logS is -1.143. Take `O=C(CCCN1CCC(O)(c2ccc(Cl)cc2)CC1)c1ccc(F)cc1` [Haloperidol]: the ex_logS is on record as -4.4289. As to `CCC1(C2=CCCCCC2)C(=O)NC(=O)NC1=O` [Heptabarbital], the ex_logS is -3.001.

As for `COc1ccc([C@@H]2CC(=O)c3c(O)cc(O)cc3O2)cc1O` [Hesperetin], the ex_logS is given as -3.044. In the case of `CC(C)Cc1ccc(C(C)C(=O)O)cc1` (stereo not drawn) [Ibuprofen], the ex_logS is -3.992. For the molecule `O=c1[nH]c(=O)n([C@H]2C[C@H](O)[C@@H](CO)O2)cc1I` [Idoxuridine], the ex_logS is listed as -2.248.

For `CN(C)CCCN1c2ccccc2CCc2ccccc21` [Imipramine], the ex_logS was -4.188. As for `COc1ccc2c(c1)c(CC(=O)O)c(C)n2C(=O)c1ccc(Cl)cc1` [Indomethacin], the ex_logS was -5.582.

Regarding `CC[C@H](C)[C@H](N)C(=O)O` [Isoleucine], the ex_logS is -0.5813. Consider `NNC(=O)c1ccncc1` [Isoniazid], for which the ex_logS was 0.008966. As for `CC1=C(/C=C/C(C)=C/C=C/C(C)=C\C(=O)O)C(C)(C)CCC1` [Isotretinoin], the ex_logS was -4.799.

In the case of `CCn1c(=O)c2c(nc(/C=C/c3ccc(OC)c(OC)c3)n2C)n(CC)c1=O` [Istradefylline], the ex_logS was -5.886.

As for `Nc1nnc(-c2cccc(Cl)c2Cl)c(N)n1` [Lamotrigine], the ex_logS is reported as -3.178. On to `Cc1c(OCC(F)(F)F)ccnc1C[S+]([O-])c1nc2ccccc2[nH]1` (stereo not drawn) [Lansoprazole], for which the ex_logS is recorded as -5.581. On to `Cc1oncc1C(=O)Nc1ccc(C(F)(F)F)cc1` [Leflunomide], for which the ex_logS is on record as -4.109. With `CC[C@@H](C(N)=O)N1CCCC1=O` [Levetiracetam], the ex_logS is 0.786. Take `N[C@@H](Cc1cc(I)c(Oc2cc(I)c(O)c(I)c2)c(I)c1)C(=O)O` [Levothyroxine]: the ex_logS was -3.869.

As to `O=NN(CCCl)C(=O)NC1CCCCC1` [Lomustine], the ex_logS is -3.323. On to `CC[C@H](C)C(=O)O[C@H]1C[C@@H](C)C=C2C=C[C@H](C)[C@H](CC[C@@H]3C[C@@H](O)CC(=O)O3)[C@H]21` [Lovastatin], for which the ex_logS is -6.0049. Turning to `OC[C@@H](O)[C@@H](O)[C@H](O)[C@H](O)CO` [Mannitol], the ex_logS is 0.07397. Consider `CCC(C)C(C)(COC(N)=O)COC(N)=O` (stereo not drawn) [Mebutamate], for which the ex_logS was -2.366. On to `Cc1cnc(NC(=O)C2=C(O)c3ccccc3S(=O)(=O)N2C)s1` [Meloxicam], for which the ex_logS is reported as -4.467. Take `CC(=O)/N=c1/sc(S(N)(=O)=O)nn1C` [Methazolamide]: the ex_logS was -1.829.

With `CN1CCC(CN2c3ccccc3Sc3ccccc32)C1` (stereo not drawn) [Methdilazine], the ex_logS is reported as -5.93.

In the case of `COc1ccccc1OCC(O)COC(N)=O` (stereo not drawn) [Methocarbamol], the ex_logS is -0.9845.

With `COc1ccc2c(c1)N(C[C@H](C)CN(C)C)c1ccccc1S2` [Methotrimeprazine], the ex_logS is listed as -4.215. As for `C[C@](N)(Cc1ccc(O)c(O)c1)C(=O)O` [Methyldopa], the ex_logS was -1.325. For the molecule `COC(=O)C(c1ccccc1)C1CCCCN1` (stereo not drawn) [Methylphenidate], the ex_logS is recorded as -2.269. In the case of `C[C@]12CCC(=O)C=C1CC[C@@H]1[C@@H]2CC[C@@]2(C)[C@H]1CC[C@]2(C)O` [Methyltestosterone], the ex_logS is -3.95. Regarding `CCC1(CC)C(=O)NCC(C)C1=O` (stereo not drawn) [Methyprylon], the ex_logS was -1.202. Turning to `Nc1nc(CC(=O)Nc2ccc(CCNC[C@H](O)c3ccccc3)cc2)cs1` [Mirabegron], the ex_logS is -3.684. On to `Clc1ccc(C(c2ccccc2Cl)C(Cl)Cl)cc1` (stereo not drawn) [Mitotane], for which the ex_logS is -6.505. Take `Oc1ccc(OCc2ccccc2)cc1` [Monobenzone]: the ex_logS is -2.902. Take `CCOC(=O)Nc1ccc2c(c1)N(C(=O)CCN1CCOCC1)c1ccccc1S2` [Moricizine]: the ex_logS was -5.971. Consider `CCCCC(=O)O` [N-Valeric Acid], for which the ex_logS is reported as -0.6289.

Consider `OC[C@H]1O[C@@H](n2cnc3cncnc32)[C@H](O)[C@@H]1O` [Nebularine], for which the ex_logS is -0.4018. On to `CCCc1c2oc(C(=O)O)cc(=O)c2cc2c(=O)cc(C(=O)O)n(CC)c12` [Nedocromil], for which the ex_logS is -3.4084.

Consider `O=C(O)c1cccnc1` [Niacin], for which the ex_logS is recorded as -0.835. As to `COC(=O)C1=C(C)NC(C)=C(C(=O)OCCN(C)Cc2ccccc2)C1c1cccc([N+](=O)[O-])c1` (stereo not drawn) [Nicardipine], the ex_logS is listed as -5.338. For `O=C(O)c1cccnc1Nc1cccc(C(F)(F)F)c1` [Niflumic acid], the ex_logS is recorded as -4.172. Consider `NC(=O)N/N=C/c1ccc([N+](=O)[O-])o1` [Nitrofural], for which the ex_logS is recorded as -2.975. `CNCCC=C1c2ccccc2CCc2ccccc21` [Nortriptyline]: the ex_logS was -5.481. On to `COc1ccc2[nH]c([S+]([O-])Cc3ncc(C)c(OC)c3C)nc2c1` (stereo not drawn) [Omeprazole], for which the ex_logS is listed as -2.983. Regarding `CN[C@H](CC(C)C)C(=O)N[C@H]1C(=O)N[C@@H](CC(N)=O)C(=O)N[C@H]2C(=O)N[C@H]3C(=O)N[C@H](C(=O)N[C@H](C(=O)O)c4cc(O)cc(O)c4-c4cc3ccc4O)[C@H](O[C@H]3C[C@](C)(N)[C@@H](O)[C@H](C)O3)c3ccc(c(Cl)c3)Oc3cc2cc(c3O[C@@H]2O[C@H](CO)[C@@H](O)[C@H](O)[C@H]2O[C@H]2C[C@](C)(NCc3ccc(-c4ccc(Cl)cc4)cc3)[C@@H](O)[C@H](C)O2)Oc2ccc(cc2Cl)[C@H]1O` [Oritavancin], the ex_logS is -2.2536.
